# According to patent publication US6914045B2, “Glycopeptide antibiotics” (Wyeth Holdings Corporation, priority 2001, dated 2005):
# How the values were obtained:
# [1] = system: Enterococcus faecalis (GC 6189); test: acute lethal infection in mice; assay type: in vivo; details: female CD-1 mice, intraperitoneal challenge, intravenous 30 min. after infection, 7 day survival
# Outline: (§1)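 Female CD-1 mice (20±2 g) got an intraperitoneal bacterial challenge lethal to untreated controls within 24–48 hr. Compound was dosed intravenously 30 min after infection, five mice per dose. ED50 was calculated from 7-day survival pooled across 3 tests.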
# [2] = system: Staphylococcus aureus-SMITH (GC 4543); test: acute lethal infection in mice; assay type: in vivo; details: acute lethal infection, female CD-1 mice, intraperitoneal challenge, intravenous 30 min. after infection, 7 day survival
# Outline: as §1
# [3] = system: Streptococcus pneumoniae (GC 1894); test: acute lethal infection in mice; assay type: in vivo; details: female CD-1 mice, intraperitoneal challenge, intravenous 30 min. after infection, 7 day survival
# Outline: as §1
# Staphylococcus sp. = test: in vitro antibacterial evaluation, MIC by broth dilution; assay type: cell-based; details: broth dilution, 18 hours at 35° C.
# Outline: (§2)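 Following National Committee for Clinical Laboratory Standards recommendations (M7-A2), susceptibility was measured by dilution in Muller-Hinton II […]. Bacteria were seeded at 5×10^5 CFU/mL against compound concentrations from 64 down to 0.06 μg/mL.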
# Enterococcus sp. = test: as above; assay type: cell-based; details: broth dilution, 18 hours at 35° C.
# Outline: as §2
# Streptococcus sp. = test: as above; assay type: cell-based; details: broth dilution, 18 hours at 35° C.
# Outline: as §2
# Escherichia coli = test: as above; assay type: cell-based; details: 18 hours at 35° C., strain ATCC 25922
# Outline: as §2
smiles,measurement,setting,value
"CCCC(C)C1OCC2OC(OC3C(CO)OC(Oc4ccc(CC5NC(=O)C(C(C)c6ccccc6)NC(=O)CNC(=O)C(CO)NC(=O)C(C(O)C6CNC(=N)N6C6OC(CO)C(O)C(O)C6O)NC(=O)C(C(O)C6CNC(=N)N6)NC5=O)cc4)C(O)C3O)C(O)C(O)C2O1 (stereo not drawn) [Example 111, Cyclo[glycyl-β-methylphenylalanyl-O-[4-O-[4,6-O-(2-methylpentylidene)hexopyranosyl]-hexopyranosyl]tyrosyl-3-(2-iminoimidazolidin-4-yl)seryl-3-(3-hexopyranosyl-2-iminoimidazolidin-4-yl)serylseryl]]","median effective dose (ED50), Enterococcus faecalis (GC 6189)",[1],0.28 mg/kg
same,"median effective dose (ED50), Staphylococcus aureus-SMITH (GC 4543)",[2],0.14 mg/kg
same,"median effective dose (ED50), Streptococcus pneumoniae (GC 1894)",[3],0.03 mg/kg
same,MIC Coagulase Negative Staphylococcus (GC 4547),Staphylococcus sp.,0.5 µg/mL
same,MIC Coagulase Negative Staphylococcus (GC 4548),Staphylococcus sp.,1 µg/mL
same,MIC Coagulase Negative Staphylococcus (GC 4549),Staphylococcus sp.,0.5 µg/mL
same,MIC Coagulase Negative Staphylococcus (GC 4551),Staphylococcus sp.,1 µg/mL
same,MIC Coagulase Negative Staphylococcus (ID-3941),Staphylococcus sp.,1 µg/mL
same,MIC Staphylococcus aureus (ATCC 29213),Staphylococcus sp.,1 µg/mL
same,MIC Staphylococcus aureus (GC 1131),Staphylococcus sp.,1 µg/mL
same,MIC Staphylococcus aureus (GC 4541),Staphylococcus sp.,1 µg/mL
same,MIC Staphylococcus aureus (GC 4542),Staphylococcus sp.,1 µg/mL
same,MIC Staphylococcus aureus (GC 4544),Staphylococcus sp.,1 µg/mL
same,MIC Staphylococcus aureus (GC 4545),Staphylococcus sp.,1 µg/mL
same,MIC Staphylococcus aureus-SMITH (GC 4543),Staphylococcus sp.,1 µg/mL
same,MIC Staphylococcus haemolyticus (GC 4546),Staphylococcus sp.,1 µg/mL
same,MIC Staphylococcus aureus (GC 1131),"Staphylococcus sp.; inoculum 5×10^5 CFU/mL, strain GC 1131",1 µg/mL
same,MIC Staphylococcus aureus (ATCC 29213),Staphylococcus sp.; strain ATCC 29213,1 µg/mL
same,MIC Staphylococcus aureus (GC 4541),Staphylococcus sp.; strain GC 4541,1 µg/mL
same,MIC Staphylococcus aureus (GC 4542),Staphylococcus sp.; strain GC 4542,1 µg/mL
same,MIC Staphylococcus aureus (GC 4544),Staphylococcus sp.; strain GC 4544,1 µg/mL
same,MIC Staphylococcus aureus (GC 4545),Staphylococcus sp.; strain GC 4545,1 µg/mL
same,MIC Staphylococcus haemolyticus (GC 4546),Staphylococcus sp.; strain GC 4546,1 µg/mL
same,MIC Coagulase Negative Staphylococcus (GC 4547),Staphylococcus sp.; strain GC 4547,0.5 µg/mL
same,MIC Coagulase Negative Staphylococcus (GC 4548),Staphylococcus sp.; strain GC 4548,1 µg/mL
same,MIC Coagulase Negative Staphylococcus (GC 4549),Staphylococcus sp.; strain GC 4549,0.5 µg/mL
same,MIC Coagulase Negative Staphylococcus (GC 4551),Staphylococcus sp.; strain GC 4551,1 µg/mL
same,MIC Coagulase Negative Staphylococcus (ID-3941),Staphylococcus sp.; strain ID-3941,1 µg/mL
same,MIC Staphylococcus aureus-SMITH (GC 4543),Staphylococcus sp.; strain SMITH GC 4543,1 µg/mL
same,MIC Enterococcus avium (GC 4558),Enterococcus sp.; Enterococcus avium (GC 4558),2 µg/mL
same,MIC Enterococcus faecalis (ATCC 29212),Enterococcus sp.; Enterococcus faecalis (ATCC 29212),2 µg/mL
same,MIC Enterococcus faecalis (GC 2242),Enterococcus sp.; Enterococcus faecalis (GC 2242),1 µg/mL
same,MIC Enterococcus faecalis (GC 4552),Enterococcus sp.; Enterococcus faecalis (GC 4552),2 µg/mL
same,MIC Enterococcus faecalis (GC 4553),Enterococcus sp.; Enterococcus faecalis (GC 4553),2 µg/mL
same,MIC Enterococcus faecalis (GC 4554),Enterococcus sp.; Enterococcus faecalis (GC 4554),2 µg/mL
same,MIC Enterococcus faecium (GC 2243),Enterococcus sp.; Enterococcus faecium (GC 2243),1 µg/mL
same,MIC Enterococcus faecium (GC 4556),Enterococcus sp.; Enterococcus faecium (GC 4556),2 µg/mL
same,MIC Enterococcus faecium (GC 4557),Enterococcus sp.; Enterococcus faecium (GC 4557),0.5 µg/mL
same,MIC Enterococcus faecalis (ATCC 29212),Enterococcus sp.; strain ATCC 29212,2 µg/mL
same,MIC Enterococcus faecalis (GC 2242),Enterococcus sp.; strain GC 2242,1 µg/mL
same,MIC Enterococcus faecium (GC 2243),Enterococcus sp.; strain GC 2243,1 µg/mL
same,MIC Enterococcus faecalis (GC 4552),Enterococcus sp.; strain GC 4552,2 µg/mL
same,MIC Enterococcus faecalis (GC 4553),Enterococcus sp.; strain GC 4553,2 µg/mL
same,MIC Enterococcus faecalis (GC 4554),Enterococcus sp.; strain GC 4554,2 µg/mL
same,MIC Enterococcus faecium (GC 4556),Enterococcus sp.; strain GC 4556,2 µg/mL
same,MIC Enterococcus faecium (GC 4557),Enterococcus sp.; strain GC 4557,0.5 µg/mL
same,MIC Enterococcus avium (GC 4558),Enterococcus sp.; strain GC 4558,2 µg/mL
same,MIC Streptococcus agalactiae (GC 4564),Streptococcus sp.; Streptococcus agalactiae (GC 4564),1 µg/mL
same,MIC Streptococcus pneumoniae (GC 4565),Streptococcus sp.; Streptococcus pneumoniae (GC 4565),0.5 µg/mL
same,MIC Streptococcus pyogenes (ID-3187),Streptococcus sp.; Streptococcus pyogenes (ID-3187),0.5 µg/mL
same,MIC Streptococcus agalactiae (GC 4564),Streptococcus sp.; strain GC 4564,1 µg/mL
same,MIC Streptococcus pneumoniae (GC 4565),Streptococcus sp.; strain GC 4565,0.5 µg/mL
same,MIC Streptococcus pyogenes (ID-3187),Streptococcus sp.; strain ID-3187,0.5 µg/mL
same,MIC Escherichia coli (ATCC 25922),Escherichia coli,32 µg/mL
